Assay results published in PubChem BioAssay AID1259342 (Broad Institute, 2017).
Activity calls are given as the source filed them.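 The calls were made as follows: active = fitted half-maximal inhibitory concentration AC50 at most ten times the top concentration tested; inconclusive = flat fit with 30 to 70% inhibition, or unusable fit; inactive = AC50 above ten times the top concentration.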

Target: E3 ubiquitin-protein ligase TRIM62 (Homo sapiens) (UniProt Q9BVG3)
Experiment: TRIM62 E3 ligase activity on CARD9 – biochemical, ubiquitin ELISA, AlphaLISA TUBE, CARD9-TRIM62 disruptor project, dose response (AID 1259342);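 as to AC50: potency is for inhibitors that reduce CARD9 ubiquitylation signal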
Settings: TRIM62-mediated CARD9 ubiquitylation, AlphaLISA TUBE detection

Chain of E3 ubiquitin-protein ligase TRIM62 (Homo sapiens) (Q9BVG3 whole entry, looked up): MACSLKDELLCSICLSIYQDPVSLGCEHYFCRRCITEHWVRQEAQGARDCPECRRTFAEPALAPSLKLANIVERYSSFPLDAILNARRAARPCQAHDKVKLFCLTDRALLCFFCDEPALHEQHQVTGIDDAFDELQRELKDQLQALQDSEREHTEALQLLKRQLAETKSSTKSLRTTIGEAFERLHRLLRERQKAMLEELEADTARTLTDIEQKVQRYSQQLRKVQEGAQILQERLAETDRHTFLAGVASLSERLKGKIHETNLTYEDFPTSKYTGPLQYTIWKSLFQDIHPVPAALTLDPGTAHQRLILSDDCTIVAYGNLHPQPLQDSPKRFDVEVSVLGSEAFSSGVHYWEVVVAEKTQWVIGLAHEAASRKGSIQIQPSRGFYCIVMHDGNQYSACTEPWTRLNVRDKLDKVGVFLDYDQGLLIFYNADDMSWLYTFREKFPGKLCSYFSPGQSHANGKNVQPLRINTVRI

SMILES	AC50	activity change, negative = inhibition (at 80 µM (top of the series))	further results
COc1ccc(S(=O)(=O)N2CCOCC2)cc1NC(=O)c1cccc(-n2cccc2)c1	3.62 µM		
O=C(NCc1cccnc1)c1ccccc1-c1nc(-c2ccccc2)no1		inactive	
CCOC(=O)C1CCN(C(=O)CN(Cc2ccccc2)S(C)(=O)=O)CC1		inactive	
CCCc1oc(C(=O)O)cc1CN		inactive	
CC(=O)c1cccc(OCC(=O)N(C)CC(=O)NCc2ccco2)c1	1.35 µM		
CN(Cc1ccco1)S(=O)(=O)c1nnc(NC(=O)c2ccccc2)s1		inactive	
O=C(NC(Sc1ncccn1)C(=O)c1ccccc1)c1ccccc1 (centres undefined)		inactive	
Cc1nn2c(c1-c1ccccc1)NC(c1ccco1)=CC2c1ccco1 (centres undefined)	13 µM		
Cc1ccc(C)n1Nc1nc(O)cs1			activity change, negative = inhibition (at 38 µM (top of the series)): inactive
O=c1oc(/C=C/c2ccc([N+](=O)[O-])s2)nc2ccccc12	> 160 µM (inactive)		
O=C(Nc1ccc2oc(-c3ccncc3)nc2c1)c1ccc2c(c1)OCCO2		inactive	
O=C(Nc1nc(-c2ccco2)c(-c2ccco2)s1)c1ccc(F)cc1F	> 160 µM (inactive)		
CC(C)(C)c1ccc(-c2nc(C#N)c(NCc3ccncc3)o2)cc1	22.3 µM		
Cc1ccc(N2NC(c3ccc(Br)cc3)=CCC2=O)cc1	> 160 µM (inactive)		
Cc1ncnc(N2CCC(c3nccn3Cc3cccnc3)CC2)c1C		inactive	
Cc1ccccc1C(=O)Nc1cnc(N2CCC(C(N)=O)(N3CCCCC3)CC2)c(C(=O)O)c1	9.03 µM		
CCSCCNC(=O)c1cncc(Br)c1		inactive	
Cc1sc2ncnc(SCc3ccco3)c2c1C	56.6 µM		
COc1cccc(NC(=O)CN(C)C(=O)c2cc3c(s2)CCC3)c1	8.47 µM		
O=C(Nc1ccc(OCC(=O)N2CCOCC2)cc1)c1cncc(Br)c1		inactive	
O=C(NCc1ccco1)[C@@H]1CSC2c3ccccc3C(=O)N21 (some centres undefined)		inactive	
Cc1c(/C=C/c2nc3ccccc3c(=O)n2-c2ccccn2)c2ccccc2n1C		inactive	
Cc1cccc(Nc2nc(C(=O)Nc3cc(F)ccc3F)nc3ccccc23)c1	24.3 µM		
CC1=CCC(C(=O)O)C(C(=O)NC2CCCCC2)C1 (centres undefined)	47.4 µM		
NC(=O)c1ccc(CN2C(=O)C3(CCNCC3)Nc3ccccc32)cc1		inactive	

SMILES	AC50	activity change, negative = inhibition (at 80 µM (top of the series))	further results
O=C(O)c1ccccc1/C=N/NC(=O)c1cc(-c2ccco2)nc2ccccc12	3 µM		
O=C(CN1CCOC1=O)N1CCC2(CCC(=O)N(CCCn3ccnc3)C2)CC1		inactive	
Cc1ccc(C)n1NC(=O)c1ccccc1O	13.5 µM		
NC(=O)C1(N2CCCCC2)CCN(c2ccc(NC(=O)c3cccc(Cl)c3)cc2C(=O)O)CC1		inactive	
O=C(NC1(C(F)(F)F)Oc2ccc(Cl)cc2O1)N1CCC2(CC1)OCCO2 (centres undefined)		inactive	
O=C(Cn1c(=O)cc(C(=O)N2CCc3ccccc3C2)c2ccccc21)NCc1ccc2c(c1)OCO2	11.8 µM		
N#Cc1c2c(c(NCc3ccco3)n3c1nc1ccccc13)CCC2		inactive	
CN1C(=O)C(c2ccccc2[N+](=O)[O-])C(=O)c2ccccc21 (centres undefined)		inactive	
Cc1c(C(=O)OCC2CCCO2)[nH]c2c1C(=O)CC(c1ccco1)C2 (centres undefined)	38.1 µM		
O=C(O)C(c1ccccc1)C(c1ccccc1)c1ccccc1 (centres undefined)		inactive	
Cc1cccc(NC(=O)Cc2coc3ccc4ccccc4c23)n1	70 µM		
Cc1ccc(Nc2nc(C(=O)Nc3ccc(Br)cc3)nc3ccccc23)cc1			activity change, negative = inhibition (at 38 µM (top of the series)): inactive
C[n+]1cccc2cccc(O)c21		inactive	
Cc1scc(C(=O)NCc2ccco2)c1-c1ccccc1		inactive	
CC1CCN(c2nc(-c3ccco3)c3c(c2C#N)CC(C)(C)OC3)CC1	17.6 µM		
Cc1ccc(Cc2cnc(N)s2)o1	> 160 µM (inactive)		
O=C(COC(=O)c1ccc(S(=O)(=O)NCc2ccco2)cc1)Nc1ccc(Cl)cn1	26.9 µM		
Cc1occc1C(=O)NCc1cccc(CNC(=O)c2ccoc2C)c1		inactive	
CN(C)C(CN=C1NS(=O)(=O)c2ccccc21)c1ccco1 (centres undefined)		inactive	
COc1ccc(S(=O)(=O)c2ccccc2)cc1NS(=O)(=O)c1cccc(C(=O)O)c1		inactive	
O=S(=O)(Nc1nc2ccc(S(=O)(=O)N3CCCCC3)cc2s1)c1ccccc1	42.2 µM		
O=C(Nc1nnc(-c2ccco2)s1)c1ccccc1		inactive	
CCOC(=O)c1ccc(-c2ccc(C3CC(=O)Nc4cc5c(cc43)OCCO5)o2)cc1 (centres undefined)		inactive	
Cc1ccc(C(=O)Nc2cnc(N3CCC(C(N)=O)(N4CCCCC4)CC3)c(C(=O)O)c2)cc1	9.21 µM		
CCCN1CCCn2nc(CNC(=O)[C@H]3CC[C@@H](N)C3)cc2C1		inactive	

SMILES	AC50	activity change, negative = inhibition (at 80 µM (top of the series))	further results
CN(C)c1ccc(CN2C[C@H]3CC[C@@H]2CN(C(=O)c2ccncc2)C3)cn1		inactive	
O=C(O)C1Oc2cc3ccccc3cc2O1	3.02 µM		
CCOc1ccc(-n2c3nc4ccccc4nc3c3c(=O)n(Cc4ccco4)cnc32)cc1		inactive	
N#CCSc1nc2c(c(=O)n1Cc1ccco1)C1(CCCC1)Cc1ccccc1-2	57 µM		
O=[N+]([O-])c1ccc2cc[nH]c2c1		inactive	
O=C(N/N=C/C=C/c1ccco1)c1cncc(Br)c1		inactive	
NC(=O)C1(N2CCCCC2)CCN(c2ncc(NC(=O)c3cccs3)cc2C(=O)O)CC1	35.8 µM		
COc1ccc(N2CC3=C(N2)c2ccccc2CC3)cc1	54 µM		
Nc1ccccc1Sc1nccc(C(F)(F)F)n1	> 160 µM (inactive)		
O=C(Nc1nc(-c2ccco2)c(-c2ccco2)s1)c1ccco1	4.63 µM		
COCC(=O)n1nc(-c2ccco2)nc1NCc1cccs1		inactive	
COC[C@]1(O)CCN(C(=O)CCN(C)S(C)(=O)=O)CC1(C)C		inactive	
NC(=O)C1(N2CCCCC2)CCN(c2ncc(NC(=O)c3cccc(Cl)c3)cc2C(=O)O)CC1	14.2 µM		
C(=N\n1cnnc1SCc1ccccc1)/c1ccco1		inactive	
O=C(Nc1ccc2oc(-c3cccnc3)nc2c1)c1ccc2c(c1)OCCO2		inactive	
CC1(C)Cc2ccccc2-c2nc(-c3ccccc3)oc(=O)c21	6.32 µM		
O=C1c2cccnc2C(=O)N1Cc1ccc(S(=O)(=O)NCc2ccco2)cc1		inactive	
COc1ccc(S(=O)(=O)N2CCN(C(=O)c3cc4c(s3)CCC4)CC2)cc1	10.2 µM		
COc1ccc(-c2nc(SCC(=O)N3CCN(c4ccccc4OC)CC3)n[nH]2)cc1		inactive	
NC(=O)C1(N2CCCCC2)CCN(c2ncc(NC(=O)c3ccc(F)cc3)cc2C(=O)O)CC1			activity change, negative = inhibition (at 38 µM (top of the series)): inactive
NC(=O)C1(N2CCCCC2)CCN(c2ncc(NC(=O)c3ccc(Cl)cc3)cc2C(=O)O)CC1	18.2 µM		
Cc1cccc2nc(CSCc3ccco3)cn12	78.2 µM		
COc1ccc(-n2c(C)c3c(OC)cccc(=O)c3c2C)cc1	27.6 µM		
O=C(COC(=O)c1cc(-c2cccs2)nc2ccccc12)NCc1ccco1	26.2 µM		
